Measured values from ChEMBL document CHEMBL5150014, “Discovery and Development of Dolastatin 10-Derived Antibody Drug Conjugate Anticancer Drugs” (J Nat Prod, 2022).
One block for each compound: values may come before it. Starred links: 1 amine or outer side, 2 acyl side, 3 side chain; linkers in the order of their positions; H or OH if unused. Non-standard residues stand in square brackets, D forms with d. Residues, ends and D or L forms follow the SMILES beside them. *: point of attachment. X2 = CO[C@H]([C@@H](C)C(=O)[*:2])[C@@H]1C[C@@H]2C[C@@H]2N1[*:1]; Dolaproine = CO[C@@H]([C@@H]1CCCN1)[C@@H](C)C(=O)O; Abu(3S-N3) = C[C@H](N=[N+]=[N-])[C@H](N)C(=O)O; X6 = C/C(=N\OCC(=O)*)c1ccc(C[C@H](N)C(=O)O)cc1; Dil = CC[C@H](C)[C@H](NC)[C@@H](CC(=O)O)OC; X5 = CCCCCCCCCCN(C)[C@H](C(=O)*)C(C)C; Phe(2-F) = N[C@@H](Cc1ccccc1F)C(=O)O; NMeV = CN[C@H](C(=O)O)C(C)C

Key:
[1] = test system: Panel NCI-60 (60 carcinoma cell lines); assay: Cytotoxicity against human Panel NCI-60 (60 carcinoma cell lines) assessed as cell growth inhibition; type: functional, cell-based
Tubulin [2] = assay: Binding affinity to tubulin (unknown origin); type: protein-complex assay, Homo sapiens
HeLa = assay: Cytotoxicity against human HeLa cells assessed as cell growth inhibition; type: functional
SK-OV-3 = assay: Cytotoxicity against human SK-OV-3 cells assessed as reduction in cell viability incubated for 96 hrs by PrestoBlue cell viability assay; type: functional, cell-based; details: SK-OV-3, 96 h
HeLa S3 = assay: Cytotoxicity against human HeLa S3 cells assessed as reduction in cell viability incubated for 4 days by propidium iodide staining based fluorescence analysis; type: functional; details: HeLa S3, 96 h
HT-29 [3] = assay: Anticancer activity against human HT-29 assessed as reduction in cell viability incubated for 96 hrs by microculture tetrazolium assay; type: functional, cell-based; details: HT-29, 96 h
SK-BR-3 = assay: Cytotoxicity against human SK-BR-3 cells assessed as cell growth inhibition incubated for 72 hrs by CellTiter-Glo assay; type: functional
ASPC1 = assay: Cytotoxicity against human ASPC1 cells assessed as cell growth inhibition incubated for 72 hrs by CellTiter-Glo assay; type: functional
[4] = Toxicity in mouse assessed as maximum tolerated dose; details: in vivo
H3396 = assay: Cytotoxicity against human H3396 cells assessed as cell growth inhibition; type: functional, cell-based
HT-29 [5] = assay: Cytotoxicity against human HT-29 cells assessed as cell growth inhibition; type: functional, cell-based
HCT-116 = assay: Cytotoxicity against human HCT-116 cells assessed as reduction inc cell viability; type: functional, cell-based
HL-60 = assay: Cytotoxicity against P-gp negative human HL-60 cells assessed as reduction inc cell viability; type: functional, cell-based
KARPAS-299 = assay: Cytotoxicity against human KARPAS-299 cells assessed as reduction in cell viability incubated for 5 days by Presto blue dye based assay; type: functional; details: KARPAS-299, 120 h
OVCAR-3 = assay: Anticancer activity against human OVCAR-3 cells assessed as growth inhibition; type: functional
SF-295 = assay: Anticancer activity against human SF-295 cells assessed as growth inhibition; type: functional
A498 = assay: Anticancer activity against human A498 cells assessed as growth inhibition; type: functional
NCI-H460 = assay: Anticancer activity against human NCI-H460 cells assessed as growth inhibition; type: functional
KM-20L2 = assay: Anticancer activity against human KM-20L2 cells assessed as growth inhibition; type: functional
SK-MEL-5 = assay: Anticancer activity against human SK-MEL-5 cells assessed as growth inhibition; type: functional
NCI-H69 = assay: Anticancer activity against human NCI-H69 cells assessed as cell growth inhibition; type: functional, cell-based
NCI-H82 = assay: Anticancer activity against human NCI-H82 cells assessed as cell growth inhibition; type: functional, cell-based
NCI-H446 [6] = assay: Anticancer activity against human NCI-H446 cells assessed as cell growth inhibition; type: functional, cell-based
NCI-H510A = assay: Anticancer activity against human NCI-H510A cells assessed as cell growth inhibition; type: functional, cell-based
NCI-H446 [7] = assay: Anti-tumor activity against human NCI-H446 cells xenografted in SCID mouse assessed as increase in median survival time at 450 microg/kg, iv (Rvb= 42 day); type: functional; details: dose 450 µg/kg
NCI-H446 [8] = assay: Anti-tumor activity against human NCI-H446 cells xenografted in SCID mouse assessed as log increase in apoptosis at 450 microg/kg, iv measured after 96 hrs; type: functional; details: dose 450 µg/kg
Tubulin [9] = assay: Inhibition of tubulin (unknown origin) polymerization assessed as reduction in microtubule formation measured for 20 mins by spectrophotometric analysis; type: protein-complex assay, Homo sapiens
Tubulin [10] = assay: Inhibition of tubulin (unknown origin) polymerization assessed as reduction in microtubule formation preincubated for 15 mins followed by GTP addition and measured for 20 mins by spectrophotometric analysis; type: protein-complex assay, Homo sapiens
L1210 = assay: Cytotoxicity against mouse L1210 cells assessed as cell growth inhibition measured after 24 hrs; type: functional, cell-based; details: L1210, 24 h
[11] = Toxicity in dog assessed as maximum tolerated dose; design: species or system Canis lupus familiaris; details: in vivo
leukaemia cell line = assay: Cytotoxicity against human leukaemia cell line assessed as cell growth inhibition; type: functional

Compound: CC[C@H](C)[C@@H]([C@@H](CC(=O)N1CCC[C@H]1[C@H](OC)[C@@H](C)C(=O)NCCc1ccccn1)OC)N(C)C(=O)[C@@H](NC(=O)[C@H](C(C)C)N(C)C)C(C)C
GI50 [1]: 0.85 nM
IC50 (Tubulin [2]): 1.2 nM

Compound: CC[C@H](C)[C@@H]([C@@H](CC(=O)NC[C@H]1O[C@H](C(=O)N[C@@H](Cc2ccccc2)c2nccs2)[C@@H](OC)[C@@H]1OC)OC)N(C)C(=O)[C@@H](NC(=O)[C@H](C(C)C)N(C)C)C(C)C
GI50 (HeLa): 0.01 nM

Compound: CC[C@H](C)[C@@H]([C@@H](CC(=O)N1CCC[C@H]1[C@H](OC)[C@@H](C)C(=O)N[C@@H](Cc1ccccc1)c1nccs1)OC)N(C)C(=O)[C@@H](NC(=O)[C@H](C(C)C)N(C)CC(O)C(O)C(O)C(O)CN=[N+]=[N-])C(C)C (stereo partly specified)
IC50 (SK-OV-3): < 1 nM

Compound: CC[C@H](C)[C@@H]([C@@H](CC(=O)N1CCC[C@H]1[C@H](OC)[C@@H](C)C(=O)OC[C@@H](O)Cc1ccccc1)OC)N(C)C(=O)[C@@H](NC(=O)[C@H](C(C)C)N(C)C)[C@@H](C)CC
IC50 (HeLa S3): 2.9 nM

Compound: C#COCC(O)C(O)C(O)C(O)CN(C)[C@H](C(=O)N[C@H](C(=O)N(C)[C@@H]([C@@H](C)CC)[C@@H](CC(=O)N1CCC[C@H]1[C@H](OC)[C@@H](C)C(=O)N[C@@H](Cc1ccccc1)c1nccs1)OC)C(C)C)C(C)C (stereo partly specified)
IC50 (SK-OV-3): 1 nM

Compound: CC[C@H](C)[C@@H]([C@@H](CC(=O)N1CCC[C@H]1[C@H](OC)[C@@H](C)C(=O)O[C@H](CO)Cc1ccccc1)OC)N(C)C(=O)[C@@H](NC(=O)[C@H](C(C)C)N(C)C)[C@@H](C)CC
IC50 (HeLa S3): 2.1 nM

IC50 (HT-29 [3]): 58.5 nM
Compound: CC[C@H](C)[C@H]1[C@H](OC)CC(=O)N2CCC[C@H]2[C@H](OC)[C@@H](C)C(=O)N[C@@H](Cc2ccccc2)c2nc(cs2)C(=O)O[C@H](C)[C@H](N(C)C)C(=O)N[C@@H](C(C)C)C(=O)N1C

Compound: CC[C@H](C)[C@@H]([C@@H](CC(=O)N1[C@H]2C[C@H]2C[C@H]1[C@H](OC)[C@@H](C)C(=O)N[C@@H](Cc1ccccc1F)C(=O)O)OC)N(C)C(=O)[C@@H](NC(=O)[C@@H](NC)C(C)C)C(C)C (H-[NMeV]V[Dil][X2][Phe(2-F)]-OH)
GI50 (SK-BR-3): 47.7 nM
GI50 (ASPC1): 1750 nM

Compound: CC[C@H](C)[C@@H]([C@@H](CC(=O)N1CCC[C@H]1[C@H](OC)[C@@H](C)C(=O)N[C@@H](Cc1ccccc1)C(=O)O)OC)N(C)C(=O)[C@@H](NC(=O)[C@@H](NC)C(C)C)C(C)C (HELM PEPTIDE1{[meV].V.[CC[C@H](C)[C@@H]([C@@H](CC(=O)[*:2])OC)N(C)[*:1]].[CO[C@H]([C@@H](C)C(=O)[*:2])[C@@H]1CCCN1[*:1]].F}$$$$V2.0)
MTD [4]: 1 mg/kg
IC50 (H3396): 105 nM
IC50 (HT-29 [5]): 10 nM
IC50 (HCT-116): 2880 nM
IC50 (HL-60): 137 nM

Compound: CCCCCCCCCCN(C)[C@H](C(=O)N[C@H](C(=O)N(C)[C@@H]([C@@H](C)CC)[C@@H](CC(=O)N1CCC[C@H]1[C@H](OC)[C@@H](C)C(=O)N[C@@H](Cc1ccccc1)C(=O)O)OC)C(C)C)C(C)C (X5-V[Dil][Dolaproine]F-OH)
IC50 (HL-60): 1.8 nM

Compound: CC[C@H](C)[C@@H]([C@@H](CC(=O)N1CCC[C@H]1[C@H](OC)[C@@H](C)C(=O)N[C@@H](Cc1ccccc1)C(=O)O)OC)N(C)C(=O)[C@@H](NC(=O)[C@H](C(C)C)N(C)C(=O)CO/N=C(\C)c1ccc(C[C@H](N)C(=O)O)cc1)[C@H](C)N=[N+]=[N-] (X6-[NMeV][Abu(3S-N3)][Dil][Dolaproine]F-OH)
IC50 (KARPAS-299): 217 nM

Compound: CC[C@H](C)[C@@H]([C@@H](CC(=O)N1CCC[C@H]1[C@H](OC)[C@@H](C)C(=O)N[C@@H](Cc1ccccc1)c1nccs1)OC)N(C)C(=O)[C@@H](NC(=O)[C@H](C(C)C)N(C)C)C(C)C [DOLASTATIN-10]
GI50 (OVCAR-3): 0.001 nM
GI50 (SF-295): 0.01 nM
GI50 (A498): 0.033 nM
GI50 (NCI-H460): 0.004 nM
GI50 (KM-20L2): 0.006 nM
GI50 (SK-MEL-5): 0.009 nM
IC50 (NCI-H69): 0.032 nM
IC50 (NCI-H82): 0.032 nM
IC50 (NCI-H446 [6]): 0.032 nM
IC50 (NCI-H510A): 0.032 nM
MST (NCI-H446 [7]): 91 days
Activity (NCI-H446 [8]): 5.2
IC50 (Tubulin [9]): 1200 nM
IC50 (Tubulin [10]): 3 nM
IC50 (L1210): 0.9 nM
GI50 [1]: 0.01 nM
MTD [4]: 0.036 mg/kg
MTD [11]: 0.02 mg/kg
ED50 (leukaemia cell line): 4.6 10^-5 ug/ml
